Literature values in patent US11053255B2, “Synthesis of mahanine and related compounds” (Georgetown University, priority 2015, dated 2021).

Key:
[1] = test system: androgen-independent, PC3 prostate cancer cells; conditions: in vitro
[2] = test system: androgen-responsive, LNCaP prostate cancer cells; conditions: in vitro
RASSF1A = conditions: human prostate cancer cells, dose-dependent
cyclin D1 = conditions: prostate cancer cells

For `CC(C)=CCC[C@]1(C)C=Cc2c(c(C)cc3c2[nH]c2cc(O)ccc23)O1` [mahanine, (R)-3,5-dimethyl-3-(4-methylpent-3-en-1-yl)-3,11-dihydropyrano[3,2-a]carbazol-9-ol], the growth inhibition [1] is listed as “inhibits growth”, the induction of apoptosis [1] is listed as “induces apoptosis” and the growth inhibition [2] is listed as “inhibits growth”. For the same molecule, the induction of apoptosis [2] was “induces apoptosis”, the “expression of RASSF1A” value (RASSF1A) was “induces the expression of RASSF1A” and the “cyclin D1 transcriptional activity” value (cyclin D1) was “represses cyclin D1 transcriptional activity”.
